These results are taken from patent publication US20260158157A1, “COMBINATION OF ANTI-HER3 ANTIBODY-DRUG CONJUGATE AND RASG12C INHIBITOR” (DAIICHI SANKYO COMPANY, LIMITED, priority 2023, published 2026).

In one data set the target is T1, topoisomerase I (Homo sapiens, UniProt P11387).
T1 sequence (P11387 1-765): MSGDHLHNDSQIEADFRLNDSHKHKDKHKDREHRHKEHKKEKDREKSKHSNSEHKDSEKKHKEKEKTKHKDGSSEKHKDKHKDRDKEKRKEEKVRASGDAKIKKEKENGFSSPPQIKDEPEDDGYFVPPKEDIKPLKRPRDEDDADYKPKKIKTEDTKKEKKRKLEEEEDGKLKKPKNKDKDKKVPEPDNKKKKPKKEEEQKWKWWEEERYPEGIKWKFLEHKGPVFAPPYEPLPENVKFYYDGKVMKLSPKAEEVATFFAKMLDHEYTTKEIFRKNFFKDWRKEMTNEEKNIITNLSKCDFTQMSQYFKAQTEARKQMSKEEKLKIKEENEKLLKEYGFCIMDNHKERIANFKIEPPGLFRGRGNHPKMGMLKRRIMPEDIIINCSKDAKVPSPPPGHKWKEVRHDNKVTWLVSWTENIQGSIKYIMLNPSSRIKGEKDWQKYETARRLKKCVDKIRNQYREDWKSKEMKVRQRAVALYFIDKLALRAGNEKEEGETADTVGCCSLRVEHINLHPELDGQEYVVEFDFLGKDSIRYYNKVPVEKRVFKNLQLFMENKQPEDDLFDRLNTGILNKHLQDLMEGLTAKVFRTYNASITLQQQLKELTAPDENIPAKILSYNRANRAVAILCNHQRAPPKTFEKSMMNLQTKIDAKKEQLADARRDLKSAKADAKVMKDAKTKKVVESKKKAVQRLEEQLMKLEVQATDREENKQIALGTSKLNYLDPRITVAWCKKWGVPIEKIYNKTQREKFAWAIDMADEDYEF
Particulars: reference: Ogitani Y. et al., Clinical Cancer Research 2016; cited from earlier work.

A further data set has as its system NCI-H358 cells. The experiment in a line: Antitumor test (1): NCI-H358 cells subcutaneously transplanted into nude mice. Particulars: for notable findings such as weight reduction: NCI-H358 xenograft nude mice, HER3-ADC (1) 3 mg/kg iv and/or RASG12C inhibitor 10 mg/kg orally, 3 weeks. The procedure:
Mouse: Female BALB/c nude mice of 5 to 6 week-old (Charles River Laboratories Japan, Inc.) were used in an experiment.
Measurement and calculation formula: In all studies, the long diameter and the short diameter of a tumor were measured with an electronic digital caliper (CD-15CX, Mitutoyo Corporation) twice a week to calculate the tumor volume (mm^3). The calculation formula was as follows: […]
HER3-ADC (1) was diluted with ABS buffer (10 mM acetate buffer (pH 5.5), 5% sorbitol), and the resultant liquid was administered in an amount of 10 mL/kg to the tail vein.
Sotorasib was dissolved in 2% hydroxypropyl methylcellulose and 1% Tween 80, and the resultant liquid was orally administered in an amount of 10 mL/kg. […] NCI-H358 cells, that is, human lung cancer line purchased from ATCC (American Type Culture Collection) were suspended in 50% Matrigel matrix (Invitrogen), and 3×10^6 cells thus obtained were subcutaneously transplanted into a right side portion of the body of each of the female nude mice, and the resultant mice were randomly grouped 13 days after the transplantation (Day 0). HER3-ADC (1) was administered to the tail vein at a dose of 3 mg/kg on Day 0, Day 7, and Day 14. The RASG12C inhibitors were administered at a dose of 10 mg/kg for 3 weeks once a day and five times a week. Groups each given one of these agents, a group given both, and a solvent administration group as a control group were established.

`CC[C@@]1(O)C(=O)OCc2c1cc1n(c2=O)Cc2c-1nc1cc(F)c(C)c3c1c2[C@@H](NC(=O)CO)CC3`: the “topoisomerase I inhibitory effect” value at topoisomerase I is on record as “confirmed to have topoisomerase I inhibitory effect”. Consider `C=CC(=O)N1CCN(c2nc(=O)n(-c3c(C)ccnc3C(C)C)c3nc(-c4c(O)cccc4F)c(F)cc23)[C@@H](C)C1` [sotorasib], for which, in the data set on NCI-H358 cells, the “notable findings such as weight reduction” value is “anal prolapse”. In the data set with NCI-H358 cells (NCI-H358 xenograft, female nude mice, 10 mg/kg orally once a day, five times a week for 3 weeks, final day of the test), the “tumor growth inhibition (TGI), single administration of RASG12C inhibitor” value is 39%. As for “HER3-ADC (1): anti-HER3 antibody (heavy chain SEQ ID NO: 1, light chain SEQ ID NO: 2) conjugated to exatecan-derivative drug-linker via thioether bond; average drug-to-antibody ratio 7.6”, the “notable findings such as weight reduction” value in the data set with NCI-H358 cells is “No notable findings such as weight reduction”. Further, the “tumor growth inhibition (TGI), single administration of HER3-ADC (1)” value in the data set on NCI-H358 cells (NCI-H358 xenograft, female nude mice, 3 mg/kg tail vein on Day 0, Day 7 and Day 14, final day of the test) turned out to be 68%.
